Laboratory results: patent US20220288052A1, “COMPOUND FOR COMBINATION TREATMENT” (priority 2019, published 2022)
Read-outs that look alike come from different tables or passages of the source.

Experiments:
5-HT transporter = 5-HT transporter (Rattus norvegicus, UniProt P31652); assay: ^3H-Citalopram binding, rat
Text: Compound (I) has been characterized as a monoamine reuptake inhibitor, based on the profile in a series of functional assays (Table 2).

SERT = SERT (Homo sapiens, UniProt P31645); assay: MDS LeadProfilingScreen, SERT; assay type: binding
Nicotinic α7 = Nicotinic α7 (Rattus norvegicus, UniProt Q05941); assay: In-house nicotinic binding assay, Nicotinic α7
NA transporter = biological target: T1, NA transporter (Mus musculus, UniProt O55192); assay: Ex vivo NA uptake in mice
T1 construct: from tissue; host or cells: tissue of dosed animals (ex vivo)
Description: The in vivo receptor occupancy (RO %) of compound (I) was calculated at the MED values (DOSE) in mFST and in the mouse motility test using the formula RO % (estimated)=DOSE 100/(ED50+DOSE). The calculations were based on ED50 values in ex vivo uptake of 5-HT and NA and WIN in vivo binding.

NMRI mice = assay: Locomotor activity (mLA); assay type: in vivo, mouse
Description: FIG. 8: The effects of compound (I) on locomotor activity. Compound (I) p.o. in NMRI mice. TSE Motility.
Compound (I) was tested in a classical test often used to measure the ability of a compound to block the reuptake of 5-HT in vivo: nialamide-induced 5-HT syndrome (m5-HT). In addition, compound (I) was tested in a locomotor activity paradigm (mLA) as a measure of its ability to block the reuptake of DA and therefore induce motility. It is generally accepted that >60% DA transporter blockade is needed to induce increased motility in this test.

mice = assay: Mouse zero maze (mZM); assay type: in vivo; details: mZero maze, p.o.
Description: Mice were treated (peroral administration) for 7 days with either, vehicle, duloxetine (10 mg/kg), and compound I (0.1 mg/kg, 1 mg/kg, and 3 mg/kg) (n=8 in each group).
Compound (I) was tested in three widely used behavioural screens for predicting anxiolytic effects in the clinic: the mouse marble burying test (mMB), mouse zero maze (mZM) and mouse stress-induced hyperthermia test (mSIH).

[1] = Linearity after single p.o. dose in mouse; assay type: in vivo; details: for AUC(0-inf) / bioavailability / half-life: female, NMRI, mouse; for AUC(0-inf) / bioavailability / half-life / Cmax / Tmax: plasma, po; for bioavailability: compared to 10 mg/kg i.v.; for half-life: read-out: T½ (converted); for Cmax / Tmax: female NMRI mouse; for Tmax: 5% Tween 80
[2] = Tissue distribution after single dose, rat; assay type: in vivo; details: sc; for AUC(0-t): male, Wistar, rat 5 mg/kg s.c., read-out: AUC(0-24 h); for half-life: rat, male Wistar rats 5 mg/kg s.c., read-out: T½ (converted)
Description: Compound (I) was dosed to male Wistar rats 5 mg/kg s.c. Plasma was taken 0.5, 1, 2, 4, 6 and 24 post dose. Brain, liver and lung were taken 1, 4 and 24 hours post dose.
The plasma profile was again essentially the same as for the single dose study showing the same T½ of 0.8 h. AUC and T½ were calculated for plasma and organs, even though the data are very sparse for the organs.

[3] = Exposure and tissue distribution after 14 days repeat dosing, rat; assay type: in vivo; details: for concentration at 2 h / Kp at 2 h: rat, sc, 2 h post last dose
Description: Single time point data is available from two 14 days repeat dose studies in mice and rats dosed to both sexes. The three low doses were performed together as one study and the top dose was performed at another occasion as a satellite study.
Samples were taken 2 h post last dose.
Plasma, brain and liver were taken 2 h post last dose.

[4] = 5 days p.o. tolerated dose study in female mice (non-GLP); assay type: in vivo, mouse; details: p.o. 5 days, 3, 5, 15, 30, 60 mg/kg
[5] = 14-day repeat-dose study in Wistar rats; assay type: in vivo, rat
Description: In a 14-day repeat-dose study 4 groups of 4 male and 4 female Wistar rats were treated daily with either compound (I) at doses of 5, 10 and 15 mg/kg s.c. (Groups 2, 3 and 4), or vehicle, 5% glucose s.c. (Group 1). A satellite group 25 mg/kg s.c. (group5) was conducted accordingly to increase the exposure and efficacy.

[6] = 15 mg/kg s.c. 14 days (Group 4)
[7] = 25 mg/kg s.c. 14 days (Group 5)

T1 sequence (O55192 whole entry): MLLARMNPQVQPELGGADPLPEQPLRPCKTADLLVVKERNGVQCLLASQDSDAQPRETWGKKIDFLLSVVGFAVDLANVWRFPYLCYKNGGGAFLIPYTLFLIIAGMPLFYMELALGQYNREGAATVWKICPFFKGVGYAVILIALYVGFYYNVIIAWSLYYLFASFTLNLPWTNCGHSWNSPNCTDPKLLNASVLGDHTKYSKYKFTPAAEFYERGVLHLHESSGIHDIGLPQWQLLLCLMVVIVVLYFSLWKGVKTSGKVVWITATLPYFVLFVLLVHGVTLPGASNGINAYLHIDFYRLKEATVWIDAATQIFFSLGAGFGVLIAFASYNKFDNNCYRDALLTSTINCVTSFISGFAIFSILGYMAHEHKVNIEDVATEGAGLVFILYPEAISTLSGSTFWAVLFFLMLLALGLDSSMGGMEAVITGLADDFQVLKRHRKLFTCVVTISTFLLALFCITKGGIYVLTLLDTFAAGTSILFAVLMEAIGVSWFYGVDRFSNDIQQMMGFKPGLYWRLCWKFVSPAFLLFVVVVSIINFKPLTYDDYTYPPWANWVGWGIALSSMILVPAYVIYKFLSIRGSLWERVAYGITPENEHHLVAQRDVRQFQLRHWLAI
Sequence of SERT (P31645 whole entry): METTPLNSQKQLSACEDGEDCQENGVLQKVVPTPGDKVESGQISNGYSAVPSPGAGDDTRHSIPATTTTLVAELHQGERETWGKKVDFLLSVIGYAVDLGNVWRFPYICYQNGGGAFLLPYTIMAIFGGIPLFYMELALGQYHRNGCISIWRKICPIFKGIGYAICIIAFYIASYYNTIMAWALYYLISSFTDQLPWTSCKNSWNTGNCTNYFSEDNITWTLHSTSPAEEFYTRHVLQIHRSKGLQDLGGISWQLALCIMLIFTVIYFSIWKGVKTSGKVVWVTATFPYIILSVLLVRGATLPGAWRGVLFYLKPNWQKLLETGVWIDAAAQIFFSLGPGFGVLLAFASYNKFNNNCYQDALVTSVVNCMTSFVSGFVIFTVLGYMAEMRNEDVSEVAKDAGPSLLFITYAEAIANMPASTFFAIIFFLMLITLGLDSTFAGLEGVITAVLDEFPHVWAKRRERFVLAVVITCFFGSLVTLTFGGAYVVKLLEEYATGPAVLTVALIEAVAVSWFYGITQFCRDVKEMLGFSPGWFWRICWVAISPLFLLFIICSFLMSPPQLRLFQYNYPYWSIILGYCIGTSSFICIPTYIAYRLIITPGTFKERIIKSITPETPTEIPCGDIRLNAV
Sequence of 5-HT transporter (P31652 whole entry): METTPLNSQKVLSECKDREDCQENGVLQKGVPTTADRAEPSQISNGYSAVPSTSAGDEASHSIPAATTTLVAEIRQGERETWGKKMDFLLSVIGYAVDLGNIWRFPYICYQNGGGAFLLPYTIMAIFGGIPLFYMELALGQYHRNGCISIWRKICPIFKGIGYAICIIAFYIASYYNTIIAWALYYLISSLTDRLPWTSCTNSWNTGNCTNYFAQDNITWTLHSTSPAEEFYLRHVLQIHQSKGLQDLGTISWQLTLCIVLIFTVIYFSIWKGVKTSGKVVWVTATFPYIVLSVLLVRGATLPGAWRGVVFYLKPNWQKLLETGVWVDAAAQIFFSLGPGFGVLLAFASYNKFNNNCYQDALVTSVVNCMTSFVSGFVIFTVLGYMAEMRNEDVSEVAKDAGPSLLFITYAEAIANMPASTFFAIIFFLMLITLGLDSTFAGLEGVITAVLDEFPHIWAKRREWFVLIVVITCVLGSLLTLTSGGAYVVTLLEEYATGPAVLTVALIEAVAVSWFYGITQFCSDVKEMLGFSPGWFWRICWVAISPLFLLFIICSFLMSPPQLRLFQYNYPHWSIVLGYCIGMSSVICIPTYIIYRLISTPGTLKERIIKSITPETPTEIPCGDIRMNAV
Sequence of Nicotinic α7 (Q05941 23-502): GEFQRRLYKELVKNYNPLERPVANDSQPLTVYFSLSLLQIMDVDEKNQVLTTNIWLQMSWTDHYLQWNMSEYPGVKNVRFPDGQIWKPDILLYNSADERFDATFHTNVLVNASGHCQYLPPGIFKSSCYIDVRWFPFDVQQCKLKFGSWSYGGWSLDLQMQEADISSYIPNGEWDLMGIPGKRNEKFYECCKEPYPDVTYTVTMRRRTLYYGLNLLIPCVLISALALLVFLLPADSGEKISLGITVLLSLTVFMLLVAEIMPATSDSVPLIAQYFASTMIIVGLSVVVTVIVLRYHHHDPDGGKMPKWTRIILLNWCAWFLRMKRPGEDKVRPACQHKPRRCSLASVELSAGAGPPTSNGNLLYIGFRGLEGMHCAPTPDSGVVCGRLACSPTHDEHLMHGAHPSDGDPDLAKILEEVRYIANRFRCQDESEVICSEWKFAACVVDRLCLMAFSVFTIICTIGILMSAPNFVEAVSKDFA

Compound `O=c1ccc2ccc(O[C@@H]3C[C@H]4CC[C@@H](C3)N4)cc2o1` [Compound (I), exo-7-(8-aza-bicyclo[3.2.1]oct-3-yloxy)-chromen-2-one] has a Ki (5-HT transporter) of 0.28 nM, a Ki (SERT) of 0.37 nM and an inhibition at 10 µM (SERT; SERT, Human, 10 μM) of 103%. For the same compound, the IC50 (Nicotinic α7) was > 10000 nM, the “NA RO %” value (NA transporter; estimated at MED in mFST (NMRI mice), DOSE 1 mg/kg) was <1.9% and the “NA RO %” value (NA transporter; estimated at MED in mMotility, DOSE 10 mg/kg) was <17%. For the same compound, the ED50 (NA transporter; mouse, po) was > 50 mg/kg, the MED (NMRI mice; mLA, 1, 3, 10 mg/kg p.o. −60 min + SCH23390 0.00375 mg/kg s.c. −60 min) was 10 mg/kg and the MED (NMRI mice; mLA, p.o. 0 min) was 10 mg/kg. The MED (mice; acute, −60 min) was >10 mg/kg, the MED (mice; 7 days OD) was <0.3 mg/kg and the AUC(0-inf) ([1]; 30 mg/kg p.o.) was 14300 ng·h/mL. For the same compound, the bioavailability ([1]; 30 mg/kg p.o.) was 206%, the half-life ([1]; 30 mg/kg p.o.) was 5.1 h and the AUC(0-inf) ([1]; 60 mg/kg p.o.) was 34700 ng·h/mL. For the same compound, the bioavailability ([1]; 60 mg/kg p.o.) was 250%, the half-life ([1]; 60 mg/kg p.o.) was 6.1 h and the “Linearity of kinetics (AUC versus dose)” value ([1]; mice, relatively high doses p.o., single dose) was “tendency to sub-linear kinetics”. For the same compound, the Cmax ([1]; 30 mg/kg p.o.) was 3080 ng/mL, the Tmax ([1]; 30 mg/kg p.o.) was 0.5 h and the Cmax ([1]; 60 mg/kg p.o.) was 4150 ng/mL. For the same compound, the Tmax ([1]; 60 mg/kg p.o.) was 0.5 h, the AUC(0-t) ([2]; Brain) was 3190 ng·h/mL and the AUC(0-t) ([2]; Liver) was 493 ng·h/mL. The AUC(0-t) ([2]; Lung) was 17600 ng·h/mL, the AUC(0-t) ([2]; Plasma) was 805 ng·h/mL and the half-life ([2]; Brain) was 3.6 h. For the same compound, the half-life ([2]; Lung) was 2.6 h, the half-life ([2]; Plasma) was 0.8 h and the concentration at 2 h ([3]; Wistar, brain, Female rats, 5 mg/kg s.c. 14 days, read-out: Brain concentration) was 468 ng/g. The concentration at 2 h ([3]; Wistar, brain, Female rats, 10 mg/kg s.c. 14 days, read-out: Brain concentration) was 1020 ng/g, the concentration at 2 h ([3]; Wistar, brain, Female rats, 15 mg/kg s.c. 14 days, read-out: Brain concentration) was 1580 ng/g and the concentration at 2 h ([3]; Wistar, brain, Female rats, 25 mg/kg s.c. 14 days, read-out: Brain concentration) was 2080 ng/g. It also gave a concentration at 2 h ([3]; Wistar, brain, Male rats, 5 mg/kg s.c. 14 days, read-out: Brain concentration) of 519 ng/g, a concentration at 2 h ([3]; Wistar, brain, Male rats, 10 mg/kg s.c. 14 days, read-out: Brain concentration) of 1380 ng/g and a concentration at 2 h ([3]; Wistar, brain, Male rats, 15 mg/kg s.c. 14 days, read-out: Brain concentration) of 1950 ng/g. It also gave a concentration at 2 h ([3]; Wistar, brain, Male rats, 25 mg/kg s.c. 14 days, read-out: Brain concentration) of 2580 ng/g, a Kp at 2 h ([3]; Wistar, brain/plasma, Female rats, 5 mg/kg s.c. 14 days, read-out: Brain/plasma ratio) of 7 and a Kp at 2 h ([3]; Wistar, brain/plasma, Female rats, 10 mg/kg s.c. 14 days, read-out: Brain/plasma ratio) of 7. For the same compound, the Kp at 2 h ([3]; Wistar, brain/plasma, Female rats, 15 mg/kg s.c. 14 days, read-out: Brain/plasma ratio) was 6, the Kp at 2 h ([3]; Wistar, brain/plasma, Male rats, 5 mg/kg s.c. 14 days, read-out: Brain/plasma ratio) was 7 and the Kp at 2 h ([3]; Wistar, brain/plasma, Male rats, 10 mg/kg s.c. 14 days, read-out: Brain/plasma ratio) was 6. It also gave a Kp at 2 h ([3]; Wistar, brain/plasma, Male rats, 15 mg/kg s.c. 14 days, read-out: Brain/plasma ratio) of 5, a Kp at 2 h ([3]; Wistar, in vivo, Female rats, 5 mg/kg s.c. 14 days, read-out: Liver/plasma ratio) of 5 and a Kp at 2 h ([3]; Wistar, in vivo, Female rats, 10 mg/kg s.c. 14 days, read-out: Liver/plasma ratio) of 5. It also gave a Kp at 2 h ([3]; Wistar, in vivo, Female rats, 15 mg/kg s.c. 14 days, read-out: Liver/plasma ratio) of 5, a Kp at 2 h ([3]; Wistar, in vivo, Male rats, 5 mg/kg s.c. 14 days, read-out: Liver/plasma ratio) of 3 and a Kp at 2 h ([3]; Wistar, in vivo, Male rats, 10 mg/kg s.c. 14 days, read-out: Liver/plasma ratio) of 3. For the same compound, the Kp at 2 h ([3]; Wistar, in vivo, Male rats, 15 mg/kg s.c. 14 days, read-out: Liver/plasma ratio) was 2, the concentration at 2 h ([3]; Wistar, liver, Female rats, 5 mg/kg s.c. 14 days, read-out: Liver concentration) was 319 ng/g and the concentration at 2 h ([3]; Wistar, liver, Female rats, 10 mg/kg s.c. 14 days, read-out: Liver concentration) was 738 ng/g. For the same compound, the concentration at 2 h ([3]; Wistar, liver, Female rats, 15 mg/kg s.c. 14 days, read-out: Liver concentration) was 1520 ng/g, the concentration at 2 h ([3]; Wistar, liver, Male rats, 5 mg/kg s.c. 14 days, read-out: Liver concentration) was 259 ng/g and the concentration at 2 h ([3]; Wistar, liver, Male rats, 10 mg/kg s.c. 14 days, read-out: Liver concentration) was 737 ng/g. It also gave a concentration at 2 h ([3]; Wistar, liver, Male rats, 15 mg/kg s.c. 14 days, read-out: Liver concentration) of 921 ng/g, a concentration at 2 h ([3]; Wistar, plasma, Female rats, 5 mg/kg s.c. 14 days, read-out: Plasma concentration) of 67 ng/mL and a concentration at 2 h ([3]; Wistar, plasma, Female rats, 10 mg/kg s.c. 14 days, read-out: Plasma concentration) of 149 ng/mL. For the same compound, the concentration at 2 h ([3]; Wistar, plasma, Female rats, 15 mg/kg s.c. 14 days, read-out: Plasma concentration) was 281 ng/mL, the concentration at 2 h ([3]; Wistar, plasma, Male rats, 5 mg/kg s.c. 14 days, read-out: Plasma concentration) was 77 ng/mL and the concentration at 2 h ([3]; Wistar, plasma, Male rats, 10 mg/kg s.c. 14 days, read-out: Plasma concentration) was 242 ng/mL. It also gave a concentration at 2 h ([3]; Wistar, plasma, Male rats, 15 mg/kg s.c. 14 days, read-out: Plasma concentration) of 398 ng/mL, a Kp at 2 h ([3]; brain/plasma, Female rats, 25 mg/kg s.c. 14 days, read-out: Brain/plasma ratio) of 5 and a Kp at 2 h ([3]; brain/plasma, Male rats, 25 mg/kg s.c. 14 days, read-out: Brain/plasma ratio) of 5. For the same compound, the Kp at 2 h ([3]; in vivo, Female rats, 25 mg/kg s.c. 14 days, read-out: Liver/plasma ratio) was 6, the Kp at 2 h ([3]; in vivo, Male rats, 25 mg/kg s.c. 14 days, read-out: Liver/plasma ratio) was 3 and the concentration at 2 h ([3]; liver, Female rats, 25 mg/kg s.c. 14 days, read-out: Liver concentration) was 2310 ng/g. The concentration at 2 h ([3]; liver, Male rats, 25 mg/kg s.c. 14 days, read-out: Liver concentration) was 1560 ng/g, the concentration at 2 h ([3]; plasma, Female rats, 25 mg/kg s.c. 14 days, read-out: Plasma concentration) was 412 ng/mL and the concentration at 2 h ([3]; plasma, Male rats, 25 mg/kg s.c. 14 days, read-out: Plasma concentration) was 512 ng/mL. For the same compound, the “Linearity of kinetics after repeat dosing” value ([3]; rats, 5-25 mg/kg s.c. 14 days, 5% glucose) was “slight tendency to supra-linear kinetics”, the Activity [4] was “increase in activity (sedation and stereotypic behaviour)” and the Body weight [4] was “no significant changes in bodyweight”. For the same compound, the Activity [5, 6] was “increased activity in both males and females”, the Body weight gain [5, 6] was “No changes in body weight gain were observed in the female rats, but a tendency to increased bodyweight in the group 4 males” and the Relative liver weights [5, 6] was “reduced in group 4 females and increased in group 4 males”. For the same compound, the Activity [5, 7] was “increased activity in both male and female”, the Body weight [5, 7] was “minimal decreased body weight” and the Liver weight [5, 7] was “No changes in liver weight”. The “Macroscopic findings at termination” value ([5]; s.c. 14 days) was “no treatment-related macroscopic findings”.
